Reference: PubChem BioAssay AID342 (DTP/NCI, 2004)
Values joined by “and” are separate entries in the source; they are usually repeats but may differ in a detail not shown here. Equal entries are not always repeated.

Tested on: Swiss mice, Sarcoma 180 sc, mean tumor weight T/C
Assay: NCI In Vivo Anticancer Drug Screen. Data for tumor model Sarcoma 180 (subcutaneous) in Swiss mice
Conditions: endpoint: mean tumor weight, higher = larger tumour
In short: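 Mice bearing transplanted tumors were treated with compound, and survival or tumor size was measured. Values are expressed as the treated-group measurement (T) divided by the vehicle-treated control measurement (C).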

[1] = dose: 31.3 mg/kg/injection, schedule: Q01DX007 (ip), vehicle: saline
[2] = dose: 62.5 mg/kg/injection, schedule: Q01DX007 (ip), vehicle: saline

Q: With C[C@@H]1C[C@H]2CC[C@H](O2)[C@H](C)C(=O)O[C@@H](C)C[C@@H]2CC[C@@H](O2)[C@@H](C)C(=O)O[C@H](C)C[C@H]2CC[C@H](O2)[C@H](C)C(=O)O[C@@H](C)C[C@@H]2CC[C@@H](O2)[C@@H](C)C(=O)O1 as the compound, how does the T/C (dose: 1.25 mg/kg/injection, schedule: Q#A X014 (ip), vehicle: olive oil, sesame oil, peanut oil) read?
A: 96 % of control

Q: What about the T/C (dose: 2.5 mg/kg/injection, schedule: Q#A X014 (ip), vehicle: olive oil, sesame oil, peanut oil) of the same compound?
A: 88 % of control

Q: And the T/C (dose: 5.0 mg/kg/injection, schedule: Q#A X014 (ip), vehicle: olive oil, sesame oil, peanut oil)?
A: 90 % of control

Q: What about the T/C (dose: 5.0 mg/kg/injection, schedule: Q#A X014 (sc), vehicle: olive oil, sesame oil, peanut oil) of the same compound?
A: 82 % of control

Q: And the T/C (dose: 9.0 mg/kg/injection, schedule: Q#A X014 (ip), vehicle: carboxymethylcellulose (CMC))?
A: 89 % of control

Q: And the T/C (dose: 10.0 mg/kg/injection, schedule: Q#A X014 (ip), vehicle: olive oil, sesame oil, peanut oil)?
A: 73 % of control and 83 % of control

Q: And the T/C (dose: 10.0 mg/kg/injection, schedule: Q#A X014 (sc), vehicle: olive oil, sesame oil, peanut oil)?
A: 81 % of control

Q: And the T/C (dose: 15.0 mg/kg/injection, schedule: Q#A X014 (sc), vehicle: olive oil, sesame oil, peanut oil)?
A: 80 % of control

Q: What about the T/C (dose: 18.0 mg/kg/injection, schedule: Q#A X014 (ip), vehicle: carboxymethylcellulose (CMC)) of the same compound?
A: 111 % of control

Q: And the T/C (dose: 20.0 mg/kg/injection, schedule: Q#A X014 (ip), vehicle: carboxymethylcellulose (CMC))?
A: 57 % of control

Q: What about the T/C (dose: 25.0 mg/kg/injection, schedule: Q#A X014 (ip), vehicle: carboxymethylcellulose (CMC)) of the same compound?
A: 53 % of control

Q: What about the T/C (dose: 25.0 mg/kg/injection, schedule: Q#A X014 (oral), vehicle: methylcellulose (MC)) of the same compound?
A: 77 % of control

Q: What about the T/C (dose: 30.0 mg/kg/injection, schedule: Q#A X014 (ip), vehicle: carboxymethylcellulose (CMC)) of the same compound?
A: 89 % of control

Q: What about the T/C (dose: 30.0 mg/kg/injection, schedule: Q#A X014 (sc), vehicle: olive oil, sesame oil, peanut oil) of the same compound?
A: 50 % of control

Q: What about the T/C (dose: 35.0 mg/kg/injection, schedule: Q#A X014 (ip), vehicle: carboxymethylcellulose (CMC)) of the same compound?
A: 60 % of control

Q: And the T/C (dose: 35.0 mg/kg/injection, schedule: Q#A X014 (sc), vehicle: olive oil, sesame oil, peanut oil)?
A: 26 % of control

Q: What about the T/C (dose: 40.0 mg/kg/injection, schedule: Q#A X014 (ip), vehicle: carboxymethylcellulose (CMC)) of the same compound?
A: 64 % of control

Q: And the T/C (dose: 40.0 mg/kg/injection, schedule: Q#A X014 (sc), vehicle: olive oil, sesame oil, peanut oil)?
A: 32 % of control

Q: And the T/C (dose: 50.0 mg/kg/injection, schedule: Q#A X014 (oral), vehicle: methylcellulose (MC))?
A: 114 % of control

Q: What about the T/C (dose: 50.0 mg/kg/injection, schedule: Q#A X014 (sc), vehicle: olive oil, sesame oil, peanut oil) of the same compound?
A: 26 % of control

Q: And the T/C (dose: 54.0 mg/kg/injection, schedule: Q01DX007 (sc), vehicle: methylcellulose (MC))?
A: 106 % of control

Q: What about the T/C (dose: 80.0 mg/kg/injection, schedule: Q01DX007 (sc), vehicle: methylcellulose (MC)) of the same compound?
A: 77 % of control

Q: And the T/C (dose: 100.0 mg/kg/injection, schedule: Q#A X014 (oral), vehicle: methylcellulose (MC))?
A: 93 % of control

Q: And the T/C (dose: 108.0 mg/kg/injection, schedule: Q03DX003 (sc), vehicle: methylcellulose (MC))?
A: 71 % of control

Q: What about the T/C (dose: 120.0 mg/kg/injection, schedule: Q01DX007 (sc), vehicle: methylcellulose (MC)) of the same compound?
A: 101 % of control

Q: What about the T/C (dose: 162.0 mg/kg/injection, schedule: Q03DX003 (sc), vehicle: methylcellulose (MC)) of the same compound?
A: 115 % of control

Q: And the T/C (dose: 180.0 mg/kg/injection, schedule: Q01DX007 (sc), vehicle: methylcellulose (MC))?
A: 100 % of control

Q: And the T/C (dose: 200.0 mg/kg/injection, schedule: Q#A X014 (oral), vehicle: methylcellulose (MC))?
A: 95 % of control

Q: What about the T/C (dose: 240.0 mg/kg/injection, schedule: Q03DX003 (sc), vehicle: methylcellulose (MC)) of the same compound?
A: 109 % of control

Q: And the T/C (dose: 360.0 mg/kg/injection, schedule: Q03DX003 (sc), vehicle: methylcellulose (MC))?
A: 102 % of control

Q: What about the T/C (dose: 540.0 mg/kg/injection, schedule: Q03DX003 (sc), vehicle: methylcellulose (MC)) of the same compound?
A: 152 % of control

Q: With CC(C)(c1ccccc1)c1ccc(O)cc1 as the compound, how does the T/C (dose: 37.5 mg/kg/injection, schedule: Q01DX007 (ip), vehicle: carboxymethylcellulose (CMC)) read?
A: 64 % of control

Q: And the T/C (dose: 75.0 mg/kg/injection, schedule: Q01DX007 (ip), vehicle: carboxymethylcellulose (CMC))?
A: 73 % of control

Q: What about the T/C (dose: 150.0 mg/kg/injection, schedule: Q01DX007 (ip), vehicle: carboxymethylcellulose (CMC)) of the same compound?
A: 44 % of control

Q: For Nc1c(Br)cc2c(c1Br)Cc1cc([N+](=O)[O-])ccc1-2, which T/C (dose: 74.0 mg/kg/injection, schedule: Q01DX007 (ip), vehicle: other) is on record?
A: 77 % of control

Q: And the T/C (dose: 111.0 mg/kg/injection, schedule: Q#A X014 (ip), vehicle: saline)?
A: 27 % of control

Q: What about the T/C (dose: 148.0 mg/kg/injection, schedule: Q01DX007 (ip), vehicle: carboxymethylcellulose (CMC)) of the same compound?
A: 92 % of control

Q: And the T/C (dose: 148.0 mg/kg/injection, schedule: Q01DX007 (ip), vehicle: other)?
A: 96 % of control

Q: What about the T/C (dose: 148.0 mg/kg/injection, schedule: Q01DX007 (ip), vehicle: saline) of the same compound?
A: 56 % of control

Q: And the T/C (dose: 166.5 mg/kg/injection, schedule: Q#A X014 (ip), vehicle: saline)?
A: 21 % of control

Q: What about the T/C (dose: 222.0 mg/kg/injection, schedule: Q01DX007 (ip), vehicle: other) of the same compound?
A: 42 % of control

Q: And the T/C (dose: 222.0 mg/kg/injection, schedule: Q01DX007 (ip), vehicle: saline)?
A: 64 % of control

Q: What about the T/C (dose: 250.0 mg/kg/injection, schedule: Q#A X014 (ip), vehicle: saline) of the same compound?
A: 21 % of control

Q: And the T/C (dose: 333.0 mg/kg/injection, schedule: Q01DX007 (ip), vehicle: other)?
A: 40 % of control

Q: What about the T/C (dose: 333.0 mg/kg/injection, schedule: Q01DX007 (ip), vehicle: saline) of the same compound?
A: 67 % of control

Q: What about the T/C (dose: 500.0 mg/kg/injection, schedule: Q01DX007 (ip), vehicle: saline) of the same compound?
A: 54 % of control

Q: Cc1ccccc1N(C=O)c1ccccc1C was tested. Which T/C (dose: 120.0 mg/kg/injection, schedule: Q01DX007 (ip), vehicle: methylcellulose (MC)) did it give?
A: 164 % of control

Q: And the T/C (dose: 200.0 mg/kg/injection, schedule: Q01DX007 (ip), vehicle: methylcellulose (MC))?
A: 150 % of control

Q: And the T/C (dose: 1000.0 mg/kg/injection, schedule: Q01DX007 (ip), vehicle: methylcellulose (MC))?
A: 104 % of control

Q: With CC(C)=CCC/C(C)=C/CO as the compound, how does the T/C (dose: 7.8 mg/kg/injection, schedule: Q01DX007 (ip), vehicle: saline) read?
A: 83 % of control

Q: And the T/C (dose: 15.6 mg/kg/injection, schedule: Q01DX007 (ip), vehicle: saline)?
A: 83 % of control

Q: What about the T/C [1] of the same compound?
A: 110 % of control

Q: What about the T/C [2] of the same compound?
A: 90 % of control

Q: For [N-]=[N+]=[N-], which T/C (dose: 1.5 mg/kg/injection, schedule: Q01DX007 (ip), vehicle: carboxymethylcellulose (CMC)) is on record?
A: 88 % of control

Q: What about the T/C (dose: 3.0 mg/kg/injection, schedule: Q01DX007 (ip), vehicle: carboxymethylcellulose (CMC)) of the same compound?
A: 61 % of control

Q: And the T/C (dose: 6.0 mg/kg/injection, schedule: Q01DX007 (ip), vehicle: carboxymethylcellulose (CMC))?
A: 76 % of control

Q: And the T/C (dose: 12.0 mg/kg/injection, schedule: Q01DX007 (ip), vehicle: carboxymethylcellulose (CMC))?
A: 69 % of control

Q: What does the source list for O=P(N1CCCCCC1)(N1CC1)N1CC1?
A: T/C (dose: 1.0 mg/kg/injection, schedule: Q#A X014 (ip), vehicle: methylcellulose (MC)): 91 % of control; T/C (dose: 1.0 mg/kg/injection, schedule: Q#A X014 (ip), vehicle: saline): 120 % of control; T/C (dose: 1.5 mg/kg/injection, schedule: Q#A X014 (ip), vehicle: methylcellulose (MC)): 86 % of control; T/C (dose: 1.5 mg/kg/injection, schedule: Q#A X014 (ip), vehicle: saline): 103 % of control; T/C (dose: 2.0 mg/kg/injection, schedule: Q#A X014 (ip), vehicle: methylcellulose (MC)): 65 % of control; T/C (dose: 2.0 mg/kg/injection, schedule: Q#A X014 (ip), vehicle: saline): 88 % of control; T/C (dose: 3.0 mg/kg/injection, schedule: Q#A X014 (ip), vehicle: methylcellulose (MC)): 61 % of control; T/C (dose: 3.0 mg/kg/injection, schedule: Q#A X014 (ip), vehicle: saline): 70 % of control

Q: How did the T/C (dose: 187.5 mg/kg/injection, schedule: Q#A X014 (ip), vehicle: saline) turn out when CCCCCCCCCCCCCCCCCC1=NC(C)CC(C)(C)O1 (configuration not stated) was run?
A: 63 % of control

Q: What does the source list for NCCc1ccccc1?
A: T/C [1]: 83 % of control; T/C [2]: 32 % of control

Q: How did the T/C (dose: 500.0 mg/kg/injection, schedule: Q#A X014 (ip), vehicle: methylcellulose (MC)) turn out when O=C(NC(CO)C(=O)O)C(Cl)Cl (configuration not stated) was run?
A: 47 % of control

Q: What about the T/C (dose: 1000.0 mg/kg/injection, schedule: Q#A X014 (ip), vehicle: methylcellulose (MC)) of the same compound?
A: 52 % of control

Q: And the T/C (dose: 1500.0 mg/kg/injection, schedule: Q#A X014 (ip), vehicle: methylcellulose (MC))?
A: 60 % of control

Q: What about the T/C (dose: 2000.0 mg/kg/injection, schedule: Q#A X014 (ip), vehicle: methylcellulose (MC)) of the same compound?
A: 66 % of control

Q: What about the T/C (dose: 2500.0 mg/kg/injection, schedule: Q#A X014 (ip), vehicle: methylcellulose (MC)) of the same compound?
A: 68 % of control

Q: How did the T/C (dose: 50.0 mg/kg/injection, schedule: Q01DX007 (ip), vehicle: carboxymethylcellulose (CMC)) turn out when N#CCOC(=O)CCC(NC(=O)OCc1ccccc1)C(N)=O (configuration not stated) was run?
A: 94 % of control

Q: How did the T/C (dose: 62.5 mg/kg/injection, schedule: Q01DX007 (ip), vehicle: carboxymethylcellulose (CMC)) turn out when COc1cccc2c1-c1ccccc1C2 was run?
A: 151 % of control

Q: What about the T/C (dose: 250.0 mg/kg/injection, schedule: Q01DX007 (ip), vehicle: carboxymethylcellulose (CMC)) of the same compound?
A: 114 % of control

Q: Nc1ncnc2c1ccn2C1OC(CO)C(O)C1O (configuration not stated) was tested. Which T/C (dose: 0.62 mg/kg/injection, schedule: Q#A X014 (ip), vehicle: carboxymethylcellulose (CMC)) did it give?
A: 90 % of control
